Half-life and logD data for two compounds are collected here from ChEMBL document CHEMBL3875156, “Design, synthesis and preliminary evaluation of dopamine-amino acid conjugates as potential D1 dopaminergic modulators” (Eur J Med Chem, 2016).

Data set [1] can be described thus: Half life in human plasma at 2.05 mg/mL. The class given is ADME, cell-free.
Data set [2] in a line: n-octanol-phosphate buffer apparent distribution coefficient, log D of the compound at pH 7.4 by shake flask method. The class given is physicochemical.
Data set [3] is described as follows: Half life in Sprague-Dawley rat brain homogenate at 2.075 mg/mL. In kind it is ADME, tissue-based.

As a reminder, the half-life is the time in which the quantity being followed falls by half. A high value points to slow loss. By logD is commonly meant the decadic logarithm of the distribution of all forms, ionised or not, between an organic phase and buffer at a given pH. `N[C@@H](Cc1c[nH]c2ccccc12)C(=O)NCCc1ccc(O)c(O)c1`: the half-life in data set [1] was 2 h; in data set [3] it was 1.33 h. Moreover, in data set [2], the logD stood at 0.5.
`CC(C)C[C@H](N)C(=O)NCCc1ccc(O)c(O)c1`: the half-life in data set [1] was found to be 0.767 h; in data set [3], 3.22 h. Besides, the logD in data set [2] came to 0.18.
